Results as given in ChEMBL document CHEMBL1201862, “PubChem BioAssay data set” (2004).
Active and inactive are the calls of the source.

Columns and labels:
Protein Tat = Protein Tat (Human immunodeficiency virus type 1 group M subtype B (isolate HXB2)(HIV-1), UniProt P04608); format: functional;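 further: tat binding to TAR RNA read out by fluorescence polarization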
[1] = OVCAR8 cell viability loss – plate reader, dry powder samples, PAX8 project, dose response (AID 743197); format: functional, cell-based; settings: OVCAR-8
[2] = COV434 cell viability loss – plate reader, dry powder, SA7, cytotoxicity control for PAX8 inhibitor project, dose response (AID 743145); format: functional, cell-based
[3] = PAX8-dependent cell viability loss – plate reader, dry powder, dose response (AID 743049); format: functional, cell-based
[4] = OVCAR-3 cell viability loss – plate reader, dry powder samples, PAX8 inhibitor project, dose response (AID 743044); format: functional, cell-based
[5] = inhibitors acting on PAX2 in cells – cell-based, plate reader, dry powder samples, selectivity assay for PAX8 inhibitor project, dose response (AID 743048); format: functional;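 further: HEK293 cells carrying a WT1 promoter luciferase reporter driven by expressed Pax2; potency is for inhibition of Pax2 driven reporter signal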
[6] = OV-90 cell viability loss – plate reader, dry powder, SA8, PAX8 inhibitor project, dose response (AID 743149); format: functional, cell-based
[7] = COV362 cell viability loss – plate reader, dry powder, SA12, cytotoxicity control for PAX8 inhibitor project, dose response (AID 743144); format: functional, cell-based
[8] = PAX5 cellular inhibition readout – cell-based, plate reader, dry powder samples, selectivity assay for PAX8 inhibitor project, dose response (AID 743047); format: functional;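 further: HEK293 cells carrying a Pax5 driven CD19 promoter luciferase reporter; potency of inhibitors that lower reporter luminescence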
Paired box protein Pax-8 = Paired box protein Pax-8 (Homo sapiens, UniProt Q06710); assay: PAX8 transcriptional activity inhibition in RMG-I – RMG-I cells, luciferase, cherry-pick, dose response (AID 687027); format: functional, cell-based;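 further: luciferase reporter driven by Pax8 target thyroperoxidase promoter measured by SteadyGlo luminescence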
[9] = M. tuberculosis H37Rv growth inhibitors, H37Rv strain (AID 1626); format: functional
[10] = target: Solute carrier family 12 member 2/member 5 (Homo sapiens, UniProt P55011+Q9H2X9); assay: KCC2 and NKCC1 inhibition by rubidium flux, cell-based, NKCC1 counter-screen (AID 1734); format: functional, HEK293
[11] = growth inhibition of replicating M. tuberculosis, dose response, counter-screen, dry powder, IC90 (AID 651617); format: functional; settings: Mycobacterium tuberculosis
[12] = inhibitors of non-replicating M. tuberculosis, dose response, luciferase, dry powder (AID 651619); format: functional; settings: Mycobacterium tuberculosis
[13] = inhibitors of non-replicating M. tuberculosis, dose response, luciferase, dry powder (AID 651620); format: functional; settings: Mycobacterium tuberculosis
[14] = antimalarial activity against Dd2 parasites – SYBR Green fluorescence, erythrocytes, dry powder, set 2, dose response (AID 1159574); format: functional, cell-based
[15] = growth inhibition of SK-MEL-5 melanoma cells – cell-based, CellTiter-Glo luminescence, dry powder, set 8, orthogonal assay for MITF inhibitor project, dose response (AID 651586); format: functional
[16] = cytotoxicity in MITF-independent A375 cells – cell-based, CellTiter-Glo luminescence, dry powder, set 4, counter-screen for MITF inhibitor project, dose response (AID 624364); format: functional; settings: A-375;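 further: A375 melanoma cells are MITF independent so this is a counter screen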
[17] = growth inhibition of MALME3 cells – cell-based, CellTiter-Glo luminescence, dry powder, set 5, orthogonal assay for MITF inhibitor project, dose response (AID 651584); format: functional; settings: MALME-3
[18] = melanocyte viability loss, MITF-dependent cells, cell-based, plate reader, dry powder, cytotoxicity control, dose response (AID 651920); format: functional
[19] = MITF Orthogonal Assay: MALME3 CTG Assay Measured in Cell-Based System Using Plate Reader - 2084-04_Inhibitor_Dose_DryPowder_Activity_Set6.; format: functional; settings: MALME-3
[20] = inhibitors of TRPM1-promoter reporter in SK-MEL-5 – cell-based, luciferase, dry powder, set 9, MITF inhibitor project, dose response (AID 651588); format: functional
[21] = MITF Orthogonal Assay: SK-MEL-5 CTG Assay Measured in Cell-Based System Using Plate Reader - 2084-02_Inhibitor_Dose_DryPowder_Activity_Set5.; format: functional
[22] = cytotoxicity in melanoma parental cells – cell-based, CellTiter-Glo, dry powder, set 6, MITF inhibitor project, dose response (AID 624429); format: functional; settings: SK-MEL-5
[23] = viability loss in MITF-independent A375 cells – cell-based, CellTiter-Glo luminescence, dry powder, set 7, counter-screen for MITF inhibitor project, dose response (AID 624490); format: functional; settings: A-375
[24] = viability loss in MITF-independent A375 cells – cell-based, CellTiter-Glo luminescence, dry powder, set 6, counter-screen for MITF inhibitor project, dose response (AID 624488); format: functional; settings: A-375
[25] = MITF Measured in Cell-Based System Using Plate Reader - 2084-01_Inhibitor_Dose_DryPowder_Activity_Set6.; format: functional
[26] = cytotoxicity in MITF-independent A375 cells – cell-based, CellTiter-Glo luminescence, dry powder, set 9, counter-screen for MITF modulator project, dose response (AID 651591); format: functional; settings: A-375
[27] = MITF Measured in Cell-Based System Using Plate Reader - 2084-01_Inhibitor_Dose_DryPowder_Activity_Set7.; format: functional
[28] = IC50 of insulin release inhibition, rat insulinoma INS-1E line, 5 mM glucose, cell-based (AID 1117331); format: functional
[29] = rise of 2N DNA cells, HeLa – IC50, dose response (AID 1117349); format: functional, cell-based
[30] = rise of 4N DNA cells, HeLa – IC50, dose response (AID 1117351); format: functional, cell-based
cells = format: functional, cell-based; settings: INS-1E

Paired box protein Pax-8, sequence (Q06710 whole entry): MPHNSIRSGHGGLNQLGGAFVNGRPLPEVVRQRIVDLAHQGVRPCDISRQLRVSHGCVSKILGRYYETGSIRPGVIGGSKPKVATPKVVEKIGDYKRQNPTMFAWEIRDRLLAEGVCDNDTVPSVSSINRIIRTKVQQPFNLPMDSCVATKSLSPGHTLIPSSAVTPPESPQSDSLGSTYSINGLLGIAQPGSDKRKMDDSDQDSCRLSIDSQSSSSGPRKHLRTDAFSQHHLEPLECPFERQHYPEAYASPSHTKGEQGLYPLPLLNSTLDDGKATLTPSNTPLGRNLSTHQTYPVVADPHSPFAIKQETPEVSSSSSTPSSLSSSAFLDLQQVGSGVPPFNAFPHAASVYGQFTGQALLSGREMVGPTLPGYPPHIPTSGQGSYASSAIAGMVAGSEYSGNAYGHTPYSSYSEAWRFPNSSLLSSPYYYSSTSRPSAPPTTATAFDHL
Protein Tat, sequence (P04608 whole entry): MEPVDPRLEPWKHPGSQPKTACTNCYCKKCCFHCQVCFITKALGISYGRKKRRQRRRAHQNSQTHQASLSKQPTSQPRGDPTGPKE

O=C(NCCN1CCN(c2ccccc2)CC1)C1CCN(S(=O)(=O)c2cccc3nonc23)CC1
active: IC50 (Protein Tat) > 100 µM

C[C@H](CO)N1C[C@H](C)[C@@H](CN(C)Cc2ccc(C(F)(F)F)cc2)Oc2ccc(NS(=O)(=O)c3ccccc3)cc2CC1=O
inactive: AC50 [1] > 70 µM | AC50 [7] > 70 µM
active: AC50 [2] 46.2 µM | AC50 [3] 53.2 µM | AC50 [4] 51.5 µM | AC50 [5] 21 µM | AC50 [6] 54 µM | AC50 [8] 23 µM | AC50 (Paired box protein Pax-8) 10.1 µM

O=C(OCC(=O)N1CCN(C(=O)c2ccco2)CC1)c1sc2ccccc2c1Cl
active: IC50 [9] > 100 µM | IC50 [10] 24 µM

Fc1ccc(Cn2cc(CSc3nnc(C4CCCC4)o3)nn2)cc1
active: IC90 [11] 250 µM | IC90 [12] 2 µM | IC90 [13] 2 µM

COc1cccc(C#Cc2ccc([C@@H]3[C@@H](CO)N4C(=O)CN(C(=O)Cc5ccccc5)C[C@@H]34)cc2)c1
active: AC50 [14] 4.88 µM

COC1=C(NS(=O)(=O)c2ccc(Br)cc2)C(=O)c2ccccc2C1=O
active: AC50 [15] 19.8 µM | AC50 [17] 34.9 µM | AC50 [19] 34.9 µM | AC50 [20] 38.3 µM | AC50 [21] 12 µM | AC50 [22] 21.5 µM | AC50 [25] 14.8 µM | AC50 [27] 10.4 µM
inactive: AC50 [16] > 70 µM | AC50 [18] > 70 µM | AC50 [23] > 70 µM | AC50 [24] > 70 µM | AC50 [26] > 70 µM

Cc1ccc(CCn2c3c(c4cc(Cl)ccc42)CN(C)CC3)cn1 [DORASTINE]
active: IC50 [28] 4.2 µM
inactive: IC50 [29] > 10 µM | IC50 [30] > 10 µM | IC50 (cells) > 33.3 µM
